The values below come from paper PMC9367663 (Journal of Enzyme Inhibition and Medicinal Chemistry, 2022).

pIC50: −log10 of the molar value. Like-named read-outs stand apart in the source and are kept apart here.

This test relates to VSV*ΔG(Luc)-S virus harbouring the spike from the D614G variant. The test is classed as cell-based, SARS-CoV-2.

One may read the pIC50 as the IC50 on a negative log10 scale, so that one unit is a factor of ten. Take `On1ccccc1=S` [a, 1-hydroxy-2(1H)-pyridinethione]: the “inhibition of viral entry” value is, setting by setting: (0.5 µM) 15.33%; (1 µM) 16.67%; (10 µM) 74.34%; (30 µM) 86.41%. Moreover, the pIC50 (read-out: IC50 viral entry) was 5.28.
